Test results: patent US20120122730A1, “Methods for Quantitative Analyses of Kinase Inhibitor Selectivity Using Small Size Panels” (priority 2010, published 2012)

Tested on: panel of 287 distinct human protein kinases, three lipid kinases, and 27 disease-relevant mutant variants
Test: Weighted selectivity score from competition binding assays against a kinase panel
Details: Kd thresholds <100 nM, <1 μM, <3 μM weighted; panel of 317 assays; FIG. 7
Procedure: In one embodiment, a kinase subset may be determined by using a computational method that can extract knowledge from large amounts of data from known cancer drug designs and find a subset of kinases. A first step in determining a kinase subset involves the use of data from competition binding assays where kinase inhibitors are evaluated against a panel of protein kinases. For each interaction, a quantitative dissociation constant (Kd) is needed.
In one embodiment, a quantitative description, called a weighted selectivity score, is developed for assessing kinome-wide compound reactivities by suitably coarse-graining the binding-affinity vector. […] The weighted selectivity score (normalized or not) is an unbiased measure that enables quantitative comparisons between compounds and the detailed differentiation and analysis of interaction patterns. […]
To validate a method of the present disclosure, data from a previous competition binding assays was used wherein 38 kinase inhibitors were evaluated against a panel of 287 distinct human protein kinases, three lipid kinases, and 27 disease-relevant mutant variants. […] Each compound was screened against the panel of 317 assays at a single concentration of 10 μM to identify candidate kinase targets, and for each interaction observed in this primary screen a quantitative dissociation constant was determined.

COc1ccc(COc2ccc(Cc3cnc(N)nc3N)cc2OC)cc1 [GW-2580]
weighted selectivity score (overall score): 3.5
